Columns and labels:
human orexin receptor 2 = human orexin receptor 2 (Homo sapiens (Human), UniProt O43614); experiment: Orexin antagonist activity, intracellular calcium FLIPR assay, RBL-2H3 cells expressing human orexin receptor 2; type: cell-based; settings: RBL-2H3 cells stably expressing human orexin receptor 2; orexin-A at approx. 80% maximal response; compound added 15 minutes before; read-out: Human Orexin2R IC50
human orexin receptor 1 = human orexin receptor 1 (Homo sapiens (Human), UniProt O43613); experiment: Orexin antagonist activity, intracellular calcium FLIPR assay, RBL-2H3 cells expressing human orexin receptor 1; type: cell-based; settings: RBL-2H3 cells stably expressing human orexin receptor 1; orexin-A at approx. 80% maximal response; compound added 15 minutes before; read-out: Human Orexin1R IC50
Sequence of human orexin receptor 1 (O43613 whole entry): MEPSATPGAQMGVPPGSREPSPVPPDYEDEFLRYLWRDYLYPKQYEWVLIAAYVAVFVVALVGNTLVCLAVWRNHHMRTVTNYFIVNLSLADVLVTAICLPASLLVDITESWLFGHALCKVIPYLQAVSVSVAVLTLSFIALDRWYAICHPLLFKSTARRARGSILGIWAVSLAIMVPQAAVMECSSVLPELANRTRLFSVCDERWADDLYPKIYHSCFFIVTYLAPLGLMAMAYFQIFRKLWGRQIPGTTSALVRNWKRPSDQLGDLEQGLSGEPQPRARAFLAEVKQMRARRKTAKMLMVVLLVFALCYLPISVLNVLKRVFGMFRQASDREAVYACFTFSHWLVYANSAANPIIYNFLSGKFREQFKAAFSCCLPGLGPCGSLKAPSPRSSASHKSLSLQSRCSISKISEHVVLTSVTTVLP

Sequence of human orexin receptor 2 (O43614 whole entry): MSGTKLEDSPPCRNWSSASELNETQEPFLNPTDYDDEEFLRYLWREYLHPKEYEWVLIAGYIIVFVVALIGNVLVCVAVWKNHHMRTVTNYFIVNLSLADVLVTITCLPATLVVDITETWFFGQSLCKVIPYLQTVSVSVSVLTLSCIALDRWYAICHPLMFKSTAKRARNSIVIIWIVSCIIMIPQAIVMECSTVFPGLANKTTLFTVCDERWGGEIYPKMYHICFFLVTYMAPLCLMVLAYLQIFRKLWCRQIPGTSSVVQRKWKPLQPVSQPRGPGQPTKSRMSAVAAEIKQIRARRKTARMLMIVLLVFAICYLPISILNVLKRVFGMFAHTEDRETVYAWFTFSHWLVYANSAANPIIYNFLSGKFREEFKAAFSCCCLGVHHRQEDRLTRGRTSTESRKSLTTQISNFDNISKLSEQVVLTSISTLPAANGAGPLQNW

| IC50 (human orexin receptor 2) | IC50 (human orexin receptor 1) | SMILES |
| --- | --- | --- |
| > 10000 nM | 69 nM | O=C(N[C@H]1CCC[C@@H]1Nc1cnc(C(F)(F)F)cn1)c1cc(Cl)ccc1-n1nccn1 [Example 52, 5-Chloro-2-(2H-1,2,3-triazol-2-yl)-N-[(1S,2S)-2-{[5-(trifluoromethyl)pyrazin-2-yl]amino}cyclopentyl]benzamide] |
| > 10000 nM | 93 nM | O=C(N[C@H]1CCC[C@@H]1Nc1cnc(C(F)(F)F)cn1)c1cccc(F)c1-n1nccn1 [Example 53, 3-Fluoro-2-(2H-1,2,3-triazol-2-yl)-N-[(1S,2S)-2-{[5-(trifluoromethyl)pyrazin-2-yl]amino}cyclopentyl]benzamide] |
| > 10000 nM | 950 nM | O=C(N[C@H]1CCC[C@@H]1Nc1cnc(C(F)(F)F)cn1)c1cc(C(F)(F)F)ccc1-n1ccnn1 [Example 54, 2-(1H-1,2,3-Triazol-1-yl)-5-(trifluoromethyl)-N-[(1S,2S)-2-{[5-(trifluoromethyl)pyrazin-2-yl]amino}cyclopentyl]benzamide] |
| > 10000 nM | 761 nM | O=C(N[C@H]1CCC[C@@H]1Nc1cnc(C(F)(F)F)cn1)c1cc(Cl)ccc1-n1ccnn1 [Example 55, 5-Chloro-2-(1H-1,2,3-triazol-1-yl)-N-[(1S,2S)-2-{[5-(trifluoromethyl)pyrazin-2-yl]amino}cyclopentyl]benzamide] |
| > 10000 nM | 166 nM | O=C(N[C@H]1CCC[C@@H]1Nc1cnc(C(F)(F)F)cn1)c1c(-n2nccn2)ccc(F)c1F [Example 56, 2,3-Difluoro-6-(2H-1,2,3-triazol-2-yl)-N-[(1S,2S)-2-{[5-(trifluoromethyl)pyrazin-2-yl]amino}cyclopentyl]benzamide] |
| > 10000 nM | 38 nM | O=C(N[C@H]1CCC[C@@H]1Nc1cnc(C(F)(F)F)cn1)c1cc(C2CC2)ccc1-n1nccn1 [Example 57, 5-Cyclopropyl-2-(2H-1,2,3-triazol-2-yl)-N-[(1S,2S)-2-{[5-(trifluoromethyl)pyrazin-2-yl]amino}cyclopentyl]benzamide] |
| > 10000 nM | 934 nM | O=C(N[C@H]1CCC[C@@H]1Nc1cnc(C(F)(F)F)cn1)c1ncccc1OC(F)(F)F [Example 58, 3-(Trifluoromethoxy)-N-[(1S,2S)-2-{[5-(trifluoromethyl)pyrazin-2-yl]amino}cyclopentyl]pyridine-2-carboxamide] |
| > 10000 nM | 161 nM | O=C(N[C@H]1CCC[C@@H]1Nc1cnc(C(F)(F)F)cn1)c1cc(Cl)ccc1-n1cccn1 [Example 59, 5-Chloro-2-(1H-pyrazol-1-yl)-N-[(1S,2S)-2-{[5-(trifluoromethyl)pyrazin-2-yl]amino}cyclopentyl]benzamide] |
| > 10000 nM | 852 nM | CCOc1cccnc1C(=O)N[C@H]1CCC[C@@H]1Nc1cnc(C(F)(F)F)cn1 [Example 60, 3-Ethoxy-N-[(1S,2S)-2-{[5-(trifluoromethyl)pyrazin-2-yl]amino}cyclopentyl]pyridine-2-carboxamide] |
| > 10000 nM | 321 nM | O=C(N[C@H]1CCC[C@@H]1Nc1cnc(C(F)(F)F)cn1)c1cc(F)cc(F)c1-n1nccn1 [Example 61, 3,5-Difluoro-2-(2H-1,2,3-triazol-2-yl)-N-[(1S,2S)-2-{[5-(trifluoromethyl)pyrazin-2-yl]amino}cyclopentyl]benzamide] |
| > 10000 nM | 457 nM | O=C(N[C@H]1CCC[C@@H]1Nc1cnc(C(F)(F)F)cn1)c1ccccc1C(F)(F)F [Example 62, 2-(Trifluoromethyl)-N-[(1S,2S)-2-{[5-(trifluoromethyl)pyrazin-2-yl]amino}cyclopentyl]benzamide] |
| > 10000 nM | 450 nM | O=C(N[C@H]1CCC[C@@H]1Nc1cnc(C(F)(F)F)cn1)c1ncccc1C1CC1 [Example 63, 3-Cyclopropyl-N-[(1S,2S)-2-{[5-(trifluoromethyl)pyrazin-2-yl]amino}cyclopentyl]pyridine-2-carboxamide] |
| > 10000 nM | 57 nM | O=C(N[C@H]1CCC[C@@H]1Nc1cnc(C(F)(F)F)cn1)c1c(F)ccc(F)c1-n1nccn1 [Example 64, 3,6-Difluoro-2-(2H-1,2,3-triazol-2-yl)-N-[(1S,2S)-2-{[5-(trifluoromethyl)pyrazin-2-yl]amino}cyclopentyl]benzamide] |
| > 10000 nM | 797 nM | O=C(N[C@H]1CCC[C@@H]1Nc1cnc(C(F)(F)F)cn1)c1ccccc1C(F)F [Example 65, 2-(Difluoromethyl)-N-[(1S,2S)-2-{[5-(trifluoromethyl)pyrazin-2-yl]amino}cyclopentyl]benzamide] |
| > 10000 nM | 180 nM | O=C(N[C@H]1CCC[C@@H]1Nc1cnc(C(F)(F)F)cn1)c1c(F)cccc1C1CC1 [Example 66, 2-Cyclopropyl-6-fluoro-N-[(1S,2S)-2-{[5-(trifluoromethyl)pyrazin-2-yl]amino}cyclopentyl]benzamide] |
| > 10000 nM | 891 nM | Cc1ccc(-n2nccn2)c(C(=O)N[C@H]2CCC[C@@H]2Nc2ccc(C(F)(F)F)nc2)c1 [Example 67, 5-Methyl-2-(2H-1,2,3-triazol-2-yl)-N-[(1S,2S)-2-{[6-(trifluoromethyl)pyridin-3-yl]amino}cyclopentyl]benzamide] |
| 1610 nM | 297 nM | COc1cccc(OC)c1C(=O)N(C1CCC1)[C@H]1CCC[C@@H]1Nc1ccc(C(F)(F)F)cn1 [Example 68, N-Cyclobutyl-2,6-dimethoxy-N-[(1S,2S)-2-{[5-(trifluoromethyl)pyridin-2-yl]amino}cyclopentyl]benzamide] |
| > 10000 nM | 321 nM | O=C(N[C@H]1CCC[C@@H]1Nc1ccc(C(F)(F)F)cn1)c1ccccc1Cl [Example 69, 2-Chloro-N-[(1S,2S)-2-{[5-(trifluoromethyl)pyridin-2-yl]amino}cyclopentyl]benzamide] |
| > 10000 nM | 678 nM | O=C(N[C@H]1CCC[C@@H]1Nc1ncc(C(F)(F)F)cn1)c1ccccc1Cl [Example 70, 2-Chloro-N-[(1S,2S)-2-{[5-(trifluoromethyl)pyrimidin-2-yl]amino}cyclopentyl]benzamide] |
| 7600 nM | 722 nM | COc1cccc(F)c1C(=O)N[C@H]1CCC[C@@H]1Nc1ccc(C(F)(F)F)cn1 [Example 71, 2-Fluoro-6-methoxy-N-[(1S,2S)-2-{[5-(trifluoromethyl)pyridin-2-yl]amino}cyclopentyl]benzamide] |
| > 10000 nM | 479 nM | O=C(N[C@H]1CCC[C@@H]1Nc1ccc(C(F)(F)F)cn1)c1c(F)cccc1F [Example 72, 2,6-Difluoro-N-[(1S,2S)-2-{[5-(trifluoromethyl)pyridin-2-yl]amino}cyclopentyl]benzamide] |
| > 10000 nM | 248 nM | CN(c1cnc(C(F)(F)F)cn1)[C@H]1CCC[C@@H]1NC(=O)c1ccccc1-n1nccn1 [Example 73, N-[(1S,2S)-2-{Methyl[5-(trifluoromethyl)pyrazin-2-yl]amino}cyclopentyl]-2-(2H-1,2,3-triazol-2-yl)benzamide] |
| > 10000 nM | 308 nM | CN(c1cnc(C(F)(F)F)cn1)[C@H]1CCC[C@@H]1NC(=O)c1cc(F)ccc1-n1nccn1 [Example 74, 5-Fluoro-N-[(1S,2S)-2-{methyl[5-(trifluoromethyl)pyrazin-2-yl]amino}cyclopentyl]-2-(2H-1,2,3-triazol-2-yl)benzamide] |

From US9156829B2, “Cycloalkyl and heterocycloalkyl compounds as orexin receptor antagonists” (Takeda Pharmaceutical Company Limited, priority 2014, dated 2015)
